Experimental data published in US12012391B1, “9-(2-hydroxyquinoline-3-yl)-10-[3-(dimethylamino)propyl]-3,4,6,7,9,10-hexahydroacridine-1,8(2H,5H)-dione as an antimicrobial compound” (KING FAISAL UNIVERSITY, priority 2023, dated 2024).

How the values were obtained:
Details in all cases: after 10, 20, 40 and 60 minutes at all dilutions 1:100 to 1:800
Candida albicans = assay: Antimicrobial activity by agar dilution, Candida albicans; format: cell-based
Procedure: (§1) The antimicrobial properties of the synthesized compound 9-(2-hydroxyquinoline-3-yl)-10-[3-(dimethylamino)propyl]-3,4,6,7,9,10-hexahydroacridine-1,8(2H,5H)-dione were studied by the method of agar dilution. Test solutions of each compound were prepared in a concentration of 1% using dimethylformamide as a solvent. Then they were diluted in a physiological solution to obtain the final experimental dilutions 1:100, 1:200, 1:400, and 1:800. The effect of these substances were compared with furacillin in a controllable study. The testing microbes used were gram positive bacteria St. aereus, gram negative bacteria E. Coli and Ps. aeruginosa, and Candida albicans fungi. The experiments used for this survey were meat-pentonlu agar (EPA) for cultivation of bacteria and Saburo environment for fungi. Each experiment used 1 ml of test solution on each plate 500 min. Add 2 drops of emulsified with microbes feel. All experimental samples were taken from the agar after 10, 20, 40, 60 minutes in the environment on the basis of Patrk planted. Bacteria were cultivated at a temperature of 37° C. for 1 day and the mushroom was kept in a thermostat for […] at a temperature of 28° C. Then the results were checked.

E. Coli = assay: Antimicrobial activity by agar dilution, E. Coli; format: cell-based, Escherichia coli
Procedure: as §1

Ps. aeruginosa = assay: Antimicrobial activity by agar dilution, Ps. aeruginosa; format: cell-based, Pseudomonas aeruginosa
Procedure: as §1

St. aereus = assay: Antimicrobial activity by agar dilution, St. aereus; format: cell-based, Staphylococcus aureus
Procedure: as §1

Measured: inhibition activity

CN(C)CCCN1C2=C(C(=O)CCC2)C(c2cc3ccccc3nc2O)C2=C1CCCC2=O [9-(2-hydroxyquinoline-3-yl)-10-[3-(dimethylamino)propyl]-3,4,6,7,9,10-hexahydroacridine-1,8(2H,5H)-dione]
highest inhibition activity: all assays above
